Results published in patent US10040804B2, “Compounds targeting proteins, compositions, methods, and uses thereof” (BioTheryX, Inc., priority 2016, dated 2018).

Experiments:
TNF-α = TNF-α expression in LPS stimulated PBMCs (Meso Scale); format: cell-based, human; conditions: Homo sapiens, PBMC, compound concentration 1 μM
How it was run: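 Thawed primary human PBMCs, 200,000 cells/well in RPMI-1640/10% FBS, pretreated with compound 1 h, then stimulated with 100 ng/mL LPS for 18-24 h. Supernatant TNF-α measured by Meso Scale assay; activity expressed as percentage of LPS-induced level, DMSO as negative control.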

IL-1β = IL-1β expression in LPS stimulated PBMCs (Meso Scale); format: cell-based, human; conditions: Homo sapiens, PBMC, compound concentration 1 μM
How it was run: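 Human PBMCs (200,000 cells/well in RPMI-1640/10% FBS) were pretreated with compound for 1 h, then stimulated with 100 ng/mL LPS for 18-24 h. IL-1β in supernatant was measured by Meso Scale assay. Activity is expressed as percentage of LPS-induced level, with DMSO-treated wells as negative control.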

IL-6 = IL-6 expression in LPS stimulated PBMCs (Meso Scale); format: cell-based, human; conditions: Homo sapiens, PBMC; compound concentration 1 μM; LPS-stimulated PBMCs
How it was run: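 Thawed human PBMCs at 200,000 cells/well in RPMI-1640/10% FBS were pretreated with compound or DMSO for 1 h, then stimulated with 100 ng/mL LPS for 18–24 h. Supernatant IL-6 was measured by Meso Scale assay and expressed as % of LPS-induced activity.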

IL-2 = assay: anti-CD3-induced IL-2 secretion in PBMCs; format: cell-based; conditions: Homo sapiens, PBMC; compound concentration 1 μM; anti-CD3 stimulated PBMCs, 24 h; DMSO = 1.0; read-out: Fold Change IL-2
How it was run: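 PBMCs stimulated on plates coated with 1 ug/mL anti-CD3 (OKT3), with compound or DMSO, 24 h. Supernatant IL-2 measured by Mesoscale; activity expressed as fold difference from DMSO-stimulated control.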

GSPT1 = target: T1, GSPT1 (Homo sapiens, UniProt P15170); assay: GSPT1 protein levels by Western Blot analysis; format: cell-based; conditions: DMSO = 100.00; for remaining activity at 0.1 µM: 100 nM compound concentration; for remaining activity at 1 µM: 1 μM compound concentration
T1 construct: Whole cell extracts were prepared using RIPA buffer according to manufacturer's protocol (Pierce); endogenous in cells
T1 sequence (P15170 whole entry): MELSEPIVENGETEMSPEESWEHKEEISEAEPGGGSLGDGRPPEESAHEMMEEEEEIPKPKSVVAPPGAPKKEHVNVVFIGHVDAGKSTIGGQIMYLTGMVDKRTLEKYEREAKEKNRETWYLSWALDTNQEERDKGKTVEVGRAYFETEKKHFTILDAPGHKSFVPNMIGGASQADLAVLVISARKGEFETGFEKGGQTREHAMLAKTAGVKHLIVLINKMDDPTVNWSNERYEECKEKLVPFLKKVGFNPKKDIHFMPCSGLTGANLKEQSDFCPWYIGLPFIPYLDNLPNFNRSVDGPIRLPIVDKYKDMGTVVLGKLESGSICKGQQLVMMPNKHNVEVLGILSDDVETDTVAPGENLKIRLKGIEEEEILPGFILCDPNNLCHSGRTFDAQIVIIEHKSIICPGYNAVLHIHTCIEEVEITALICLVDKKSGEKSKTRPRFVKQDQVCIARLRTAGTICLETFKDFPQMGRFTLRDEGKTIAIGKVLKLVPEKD
T1 sequence (Q96SW2 whole entry, further chain): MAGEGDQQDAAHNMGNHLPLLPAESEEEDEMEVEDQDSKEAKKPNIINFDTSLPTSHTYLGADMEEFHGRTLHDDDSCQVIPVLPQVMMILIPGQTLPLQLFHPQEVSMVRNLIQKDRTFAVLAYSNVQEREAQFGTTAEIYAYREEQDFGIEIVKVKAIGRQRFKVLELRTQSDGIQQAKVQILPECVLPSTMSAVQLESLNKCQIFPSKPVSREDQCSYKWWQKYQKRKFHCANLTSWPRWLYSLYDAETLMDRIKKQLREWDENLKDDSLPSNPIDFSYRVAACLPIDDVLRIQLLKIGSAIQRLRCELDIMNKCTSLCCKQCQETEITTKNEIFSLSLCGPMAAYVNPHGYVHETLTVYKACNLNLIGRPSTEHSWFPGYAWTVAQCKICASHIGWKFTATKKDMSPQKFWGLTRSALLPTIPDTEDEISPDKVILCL
T1 sequence (Q16531 whole entry partner): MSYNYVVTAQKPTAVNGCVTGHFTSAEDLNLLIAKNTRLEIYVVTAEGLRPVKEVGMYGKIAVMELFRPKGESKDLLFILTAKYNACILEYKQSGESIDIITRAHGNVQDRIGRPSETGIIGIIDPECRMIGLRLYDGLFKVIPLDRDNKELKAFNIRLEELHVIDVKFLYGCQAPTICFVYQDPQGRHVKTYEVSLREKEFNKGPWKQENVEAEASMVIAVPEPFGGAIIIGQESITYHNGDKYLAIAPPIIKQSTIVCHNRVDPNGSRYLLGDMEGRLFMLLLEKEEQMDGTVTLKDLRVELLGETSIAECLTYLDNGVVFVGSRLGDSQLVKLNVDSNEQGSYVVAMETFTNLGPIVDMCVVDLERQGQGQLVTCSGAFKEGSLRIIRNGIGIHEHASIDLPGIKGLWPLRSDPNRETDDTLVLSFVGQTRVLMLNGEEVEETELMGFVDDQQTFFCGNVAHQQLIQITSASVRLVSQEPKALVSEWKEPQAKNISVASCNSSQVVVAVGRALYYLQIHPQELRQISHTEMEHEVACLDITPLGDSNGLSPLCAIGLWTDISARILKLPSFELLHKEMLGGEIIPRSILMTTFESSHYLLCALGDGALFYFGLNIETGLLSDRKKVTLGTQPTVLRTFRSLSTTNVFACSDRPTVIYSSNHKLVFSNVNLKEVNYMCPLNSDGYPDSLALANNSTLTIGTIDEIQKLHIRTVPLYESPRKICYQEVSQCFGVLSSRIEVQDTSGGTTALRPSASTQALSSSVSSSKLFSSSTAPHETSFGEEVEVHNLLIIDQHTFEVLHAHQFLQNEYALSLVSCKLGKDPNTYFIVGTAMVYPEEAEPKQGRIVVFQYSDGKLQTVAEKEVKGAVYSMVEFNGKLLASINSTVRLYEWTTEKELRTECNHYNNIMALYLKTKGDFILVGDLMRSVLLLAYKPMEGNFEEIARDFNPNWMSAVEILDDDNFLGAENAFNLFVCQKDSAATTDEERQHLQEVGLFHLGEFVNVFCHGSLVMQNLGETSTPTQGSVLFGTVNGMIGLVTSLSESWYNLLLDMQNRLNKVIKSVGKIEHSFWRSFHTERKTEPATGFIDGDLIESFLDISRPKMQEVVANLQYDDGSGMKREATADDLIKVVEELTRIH
How it was run: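 Molm-13 AML cells in RPMI 1640 with 10% FBS, about 10^6 cells/mL, treated with compound or DMSO for 6-8 h. RIPA whole-cell lysates resolved by SDS-PAGE, blotted and probed for GSPT1 with β-actin reference; IRDye secondary antibodies quantified by LI-COR Odyssey infrared imaging.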

H1048 cells = assay: H1048 cell viability (CellTiter-Glo); format: cell-based; conditions: Homo sapiens, NCI-H1048, 72 h, H1048, 3 days, DMSO = 100.00; for viability at 1 µM: 1 μM compound concentration; for viability at 10 µM: 10 μM compound concentration
How it was run: (§1)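 Molm-13 (RPMI-1640, 10% FBS) and H1048 (DMEM:F12, 5% FBS with supplements) plated at 20,000 cells/well, treated with compound or 0.1% DMSO for 3 days at 37° C., 5% CO2. Viability read by CellTiter-Glo luminescence after 10 min.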

Molm-13 cells = assay: Molm-13 cell viability (CellTiter-Glo); format: cell-based; conditions: Homo sapiens, MOLM-13, read-out: % Inhibition (MOLM-13 Cell Viability); for cytotoxicity at 0.3 µM: compound concentration 0.3 μM; for cytotoxicity at 10 µM: compound concentration 10 μM
How it was run: as §1

MDA-MB-231 cells = assay: MDA-MB-231 cell viability (CellTiter-Glo); format: cell-based; conditions: Homo sapiens, 72 h, 3 days, DMSO = 100.00; for viability at 1 µM: 1 μM compound concentration; for viability at 10 µM: 10 μM compound concentration
How it was run: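 Cells in DMEM with 10% FBS, seeded at 10,000 per well, exposed to compound (0.1% DMSO control) for 3 days at 37° C, 5% CO2. Viability read by CellTiter-Glo luminescence after 10 min shaking.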

With `Cc1ccc(NC(=O)NCc2scc3c2CN([C@H]2CCCC(=O)NC2=O)C3=O)cc1C(F)(F)F` [Compound 38, (S)-1-((5-(2,7-Dioxoazepan-3-yl)-4-oxo-5,6-dihydro-4H-thieno[3,4-c]pyrrol-1-yl)methyl)-3-(4-methyl-3-(trifluoromethyl)phenyl)urea] the inhibition at 1 µM (TNF-α) was 87%, the inhibition at 1 µM (IL-1β) was 84% and the inhibition at 1 µM (IL-6) was 94%. It also gave a fold induction at 1 µM (IL-2) of 0.6, a remaining activity at 0.1 µM (GSPT1) of 49% and a remaining activity at 1 µM (GSPT1) of 5.52%. It also gave a viability at 1 µM (H1048 cells) of 8.35%, a viability at 10 µM (H1048 cells) of 7.89% and a cytotoxicity at 0.3 µM (Molm-13 cells) of 50%. For the same compound, the viability at 1 µM (MDA-MB-231 cells) was 54.7% and the viability at 10 µM (MDA-MB-231 cells) was 27.6%.

`Cc1ccc(CNC(=O)NCc2cc3c(s2)C(=O)N([C@H]2CCCC(=O)NC2=O)C3)cc1Cl` [Compound 39, (S)-1-(3-Chloro-4-methylbenzyl)-3-((5-(2,7-dioxoazepan-3-yl)-6-oxo-5,6-dihydro-4H-thieno[2,3-c]pyrrol-2-yl)methyl)urea] showed an inhibition at 1 µM (TNF-α) of 18%, an inhibition at 1 µM (IL-1β) of 24% and an inhibition at 1 µM (IL-6) of 0%. For the same compound, the fold induction at 1 µM (IL-2) was 1.4, the remaining activity at 0.1 µM (GSPT1) was 87.4% and the remaining activity at 1 µM (GSPT1) was 96%. For the same compound, the viability at 1 µM (H1048 cells) was 58.3%, the viability at 10 µM (H1048 cells) was 19.9% and the cytotoxicity at 10 µM (Molm-13 cells) was 9%. For the same compound, the viability at 1 µM (MDA-MB-231 cells) was 105% and the viability at 10 µM (MDA-MB-231 cells) was 101%.

Compound `Cc1ccc(NC(=O)NCc2cc3c(s2)C(=O)N(C2CCC(=O)NC2=O)C3)cc1Cl` (centres unmarked) [Compound 40, 1-(3-Chloro-4-methylphenyl)-3-((5-(2,6-dioxopiperidin-3-yl)-6-oxo-5,6-dihydro-4H-thieno[2,3-c]pyrrol-2-yl)methyl)urea] has an inhibition at 1 µM (TNF-α) of 34%, an inhibition at 1 µM (IL-1β) of 37% and an inhibition at 1 µM (IL-6) of 17%. The fold induction at 1 µM (IL-2) was 0.3, the remaining activity at 0.1 µM (GSPT1) was 46% and the remaining activity at 1 µM (GSPT1) was 40%. For the same compound, the viability at 1 µM (H1048 cells) was 12.9%, the viability at 10 µM (H1048 cells) was 13.6% and the cytotoxicity at 0.02 µM (Molm-13 cells; compound concentration 0.02 μM) was 50%. The viability at 1 µM (MDA-MB-231 cells) was 57.7% and the viability at 10 µM (MDA-MB-231 cells) was 50%.

`Cc1ccc(NC(=S)NCc2scc3c2CN([C@H]2CCCC(=O)NC2=O)C3=O)cc1Cl` [Compound 41] gave an inhibition at 1 µM (TNF-α) of 90%, an inhibition at 1 µM (IL-1β) of 89% and an inhibition at 1 µM (IL-6) of 95%. It also gave a fold induction at 1 µM (IL-2) of 0.3, a remaining activity at 0.1 µM (GSPT1) of 55.2% and a remaining activity at 1 µM (GSPT1) of 6.4%. For the same compound, the viability at 1 µM (H1048 cells) was 9.42%, the viability at 10 µM (H1048 cells) was 9.37% and the cytotoxicity at 0.3 µM (Molm-13 cells) was 50%. It also gave a viability at 1 µM (MDA-MB-231 cells) of 58.2% and a viability at 10 µM (MDA-MB-231 cells) of 30%.

`Cc1ccc(NC(=O)NCc2scc3c2CN([C@H]2CCCC(=O)NC2=O)C3=O)cc1C(C)C` [Compound 42, (S)-1-((5-(2,7-Dioxoazepan-3-yl)-4-oxo-5,6-dihydro-4H-thieno[3,4-c]pyrrol-1-yl)methyl)-3-(3-isopropyl-4-methylphenyl)urea] gave an inhibition at 1 µM (TNF-α) of 90%, an inhibition at 1 µM (IL-1β) of 91% and an inhibition at 1 µM (IL-6) of 97%. For the same compound, the fold induction at 1 µM (IL-2) was 0.4, the remaining activity at 0.1 µM (GSPT1) was 50.7% and the remaining activity at 1 µM (GSPT1) was 8.44%. It also gave a viability at 1 µM (H1048 cells) of 8.7%, a viability at 10 µM (H1048 cells) of 8.68% and a cytotoxicity at 0.8 µM (Molm-13 cells; compound concentration 0.8 μM) of 50%. For the same compound, the viability at 1 µM (MDA-MB-231 cells) was 57.6% and the viability at 10 µM (MDA-MB-231 cells) was 30.5%.

For `Cc1c(Cl)cc(NC(=O)NCc2scc3c2CN([C@H]2CCCC(=O)NC2=O)C3=O)cc1C(C)C` [Compound 43, (S)-1-(3-Chloro-5-isopropyl-4-methylphenyl)-3-((5-(2,7-dioxoazepan-3-yl)-4-oxo-5,6-dihydro-4H-thieno[3,4-c]pyrrol-1-yl)methyl)urea], the inhibition at 1 µM (TNF-α) was 77%, the inhibition at 1 µM (IL-1β) was 73% and the inhibition at 1 µM (IL-6) was 88%. It also gave a fold induction at 1 µM (IL-2) of 0.5, a remaining activity at 0.1 µM (GSPT1) of 56% and a remaining activity at 1 µM (GSPT1) of 14.2%. For the same compound, the viability at 1 µM (H1048 cells) was 7.97%, the viability at 10 µM (H1048 cells) was 7.63% and the cytotoxicity at 10 µM (Molm-13 cells) was 100%. The viability at 1 µM (MDA-MB-231 cells) was 55.2% and the viability at 10 µM (MDA-MB-231 cells) was 23.7%.

`Cc1ccc(CNC(=O)NCc2cc3c(s2)C(=O)N(C2CCC(=O)NC2=O)C3)cc1Cl` (centres unmarked) [Compound 44, 1-(3-Chloro-4-methylbenzyl)-3-((5-(2,6-dioxopiperidin-3-yl)-6-oxo-5,6-dihydro-4H-thieno[2,3-c]pyrrol-2-yl)methyl)urea] gave an inhibition at 1 µM (TNF-α) of 41%, an inhibition at 1 µM (IL-1β) of 45% and an inhibition at 1 µM (IL-6) of 6%. The fold induction at 1 µM (IL-2) was 1, the remaining activity at 0.1 µM (GSPT1) was 57.3% and the remaining activity at 1 µM (GSPT1) was 53.6%. For the same compound, the viability at 1 µM (H1048 cells) was 13.8%, the viability at 10 µM (H1048 cells) was 14.3% and the cytotoxicity at 0.1 µM (Molm-13 cells; compound concentration 0.1 μM) was 50%. For the same compound, the viability at 1 µM (MDA-MB-231 cells) was 64.6% and the viability at 10 µM (MDA-MB-231 cells) was 56.5%.
